Source: US20190292189A1, “LIM KINASE INHIBITORS” (VIRONGY, LLC, priority 2016, published 2019)
Like-named read-outs stand apart in the source and are kept apart here.

Experiments:
[1] = Plasma pharmacokinetics studies on rats; settings: rats; for AUC (iv) / Cl (iv) / T1/2 (iv) / Yd (iv) / Cmax: iv dosing 1 mg/kg; for F (%) (po): po dosing 2 mg/kg; for Cmax: read-out: Cmax (iv)
Description: In vivo pharmacokinetics (PK) studies were conducted for selected compounds during the whole optimization at various stages in order to identify structural elements that are favorable for in vivo applications, and/or to evaluate the feasibility of optimized Limk inhibitors for animal studies.

P450 3A4 = P450 3A4 (Homo sapiens, UniProt P08684); assay: P450 inhibition at 10 μM; assay type: in vitro ADME
P450 2C9 = P450 2C9 (Homo sapiens, UniProt P11712); assay: P450 inhibition at 10 μM; assay type: in vitro ADME
P450 1A2 = biological target: T1, P450 1A2 (Homo sapiens, UniProt P05177)
T1 sequence (P05177 1-516): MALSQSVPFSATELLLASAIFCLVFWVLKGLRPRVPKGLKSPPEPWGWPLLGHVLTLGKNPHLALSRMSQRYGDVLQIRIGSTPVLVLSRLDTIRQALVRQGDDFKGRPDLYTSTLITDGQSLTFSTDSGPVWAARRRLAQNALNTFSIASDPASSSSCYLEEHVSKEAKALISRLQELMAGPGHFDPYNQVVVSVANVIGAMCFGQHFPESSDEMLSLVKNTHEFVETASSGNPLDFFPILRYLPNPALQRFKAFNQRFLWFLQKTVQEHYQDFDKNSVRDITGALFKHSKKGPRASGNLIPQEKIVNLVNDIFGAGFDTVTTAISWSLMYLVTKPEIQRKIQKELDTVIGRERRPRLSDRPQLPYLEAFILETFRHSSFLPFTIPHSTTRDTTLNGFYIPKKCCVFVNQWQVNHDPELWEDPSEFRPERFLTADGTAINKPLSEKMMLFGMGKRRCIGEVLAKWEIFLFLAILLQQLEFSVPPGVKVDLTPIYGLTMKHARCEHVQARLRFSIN

P450 2D6 = P450 2D6 (Homo sapiens, UniProt P10635); assay: P450 inhibition at 10 μM; assay type: in vitro ADME
ROCK-II = ROCK-II (Homo sapiens, UniProt O75116); assay: ROCK-II biochemical counter-screen; settings: means of ≥2 experiments, read-out: IC50 (nM) ROCK-II
ROCK-I = ROCK-I (Homo sapiens, UniProt Q13464); assay: ROCK-I biochemical counter-screen; settings: Table 6; read-out: Biochemical Inhibition IC50 (nM) ROCK-I
[2] = Microsomal stability, human liver microsomes; assay type: in vitro ADME
[3] = Microsomal stability, rat liver microsomes; assay type: in vitro ADME
Limk1 = Limk1 (Homo sapiens, UniProt P53667); assay: Limk1 biochemical assay (Reaction Biology, 10-dose IC50); parameters: His; purchased Reaction Biology Corporation; host or cells: insect cells
HIV-1(NL4-3) = assay: microbe, parasite or virus in culture; assay type: cell-based; settings: […]; dosages with no detectable cytotoxicity
JNK3 = JNK3 (Homo sapiens, UniProt P53779); assay: JNK3 biochemical counter-screen; settings: Table 6; read-out: Biochemical Inhibition IC50 (nM) JNK3
[4] = tested on: cofilin phosphorylation in A7r5 cells; assay: In-cell Western assay of cofilin phosphorylation in A7r5 cells; assay type: cell-based
Description: A7r5 (15,000 cells/well) were plated in a clear-bottomed Packard View black 96-well plate in 100 μl of 10% FBS DMEM:F12 medium and were allowed to attach overnight. The next day, the cells were serum starved in 1% FBS DMEM medium for 2 hr and then treated with the compounds for 1 hr. […] Next day, they were washed twice with PBS-0.1% Tween 20 (PBST) washing solution for 5 min each at room temperature on the orbital shaker, followed by one wash with Licor Blocking Buffer containing 0.05% Tween-20 for 5 min on the shaker at RT. The cells were then incubated with secondary antibody goat anti-rabbit IR800 (1:500 dilution) for 1 hr at RT in the dark (covered the plate with foil) in Licor blocking buffer-containing Tween-20. Following this, cells were washed twice with PBST for 5 min each at room temperature and then once with Licor blocking buffer-containing 0.05% Tween-20. The wells were then incubated with ToPro 3 stain (nucleic acid staining), diluted 1:4000 in Licor blocking buffer or Licor blocking buffer with 0.05% Tween-20 for 30 min at room temperature in the dark. Finally the plates were washed twice with PBS and analyzed using the Odyssey LICOR Infrared Scanner.

[5] = Table 4, means of ≥2 experiments, read-out: IC50 (nM) Limk1

Chain of P450 3A4 (P08684 whole entry): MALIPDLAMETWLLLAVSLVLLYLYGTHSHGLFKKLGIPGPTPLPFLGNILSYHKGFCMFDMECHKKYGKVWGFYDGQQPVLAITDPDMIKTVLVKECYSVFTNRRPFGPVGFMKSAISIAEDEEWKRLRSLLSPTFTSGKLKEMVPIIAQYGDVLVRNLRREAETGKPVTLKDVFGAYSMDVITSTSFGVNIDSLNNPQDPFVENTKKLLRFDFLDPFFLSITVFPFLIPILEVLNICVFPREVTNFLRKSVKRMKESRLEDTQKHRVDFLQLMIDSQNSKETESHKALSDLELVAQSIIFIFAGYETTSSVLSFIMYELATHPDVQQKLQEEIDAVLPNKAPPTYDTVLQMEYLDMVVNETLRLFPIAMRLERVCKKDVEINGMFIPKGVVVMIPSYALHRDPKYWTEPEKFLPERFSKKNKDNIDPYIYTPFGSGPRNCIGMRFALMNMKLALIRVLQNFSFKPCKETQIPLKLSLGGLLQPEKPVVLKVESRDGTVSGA
Chain of ROCK-I (Q13464 whole entry, species assumed): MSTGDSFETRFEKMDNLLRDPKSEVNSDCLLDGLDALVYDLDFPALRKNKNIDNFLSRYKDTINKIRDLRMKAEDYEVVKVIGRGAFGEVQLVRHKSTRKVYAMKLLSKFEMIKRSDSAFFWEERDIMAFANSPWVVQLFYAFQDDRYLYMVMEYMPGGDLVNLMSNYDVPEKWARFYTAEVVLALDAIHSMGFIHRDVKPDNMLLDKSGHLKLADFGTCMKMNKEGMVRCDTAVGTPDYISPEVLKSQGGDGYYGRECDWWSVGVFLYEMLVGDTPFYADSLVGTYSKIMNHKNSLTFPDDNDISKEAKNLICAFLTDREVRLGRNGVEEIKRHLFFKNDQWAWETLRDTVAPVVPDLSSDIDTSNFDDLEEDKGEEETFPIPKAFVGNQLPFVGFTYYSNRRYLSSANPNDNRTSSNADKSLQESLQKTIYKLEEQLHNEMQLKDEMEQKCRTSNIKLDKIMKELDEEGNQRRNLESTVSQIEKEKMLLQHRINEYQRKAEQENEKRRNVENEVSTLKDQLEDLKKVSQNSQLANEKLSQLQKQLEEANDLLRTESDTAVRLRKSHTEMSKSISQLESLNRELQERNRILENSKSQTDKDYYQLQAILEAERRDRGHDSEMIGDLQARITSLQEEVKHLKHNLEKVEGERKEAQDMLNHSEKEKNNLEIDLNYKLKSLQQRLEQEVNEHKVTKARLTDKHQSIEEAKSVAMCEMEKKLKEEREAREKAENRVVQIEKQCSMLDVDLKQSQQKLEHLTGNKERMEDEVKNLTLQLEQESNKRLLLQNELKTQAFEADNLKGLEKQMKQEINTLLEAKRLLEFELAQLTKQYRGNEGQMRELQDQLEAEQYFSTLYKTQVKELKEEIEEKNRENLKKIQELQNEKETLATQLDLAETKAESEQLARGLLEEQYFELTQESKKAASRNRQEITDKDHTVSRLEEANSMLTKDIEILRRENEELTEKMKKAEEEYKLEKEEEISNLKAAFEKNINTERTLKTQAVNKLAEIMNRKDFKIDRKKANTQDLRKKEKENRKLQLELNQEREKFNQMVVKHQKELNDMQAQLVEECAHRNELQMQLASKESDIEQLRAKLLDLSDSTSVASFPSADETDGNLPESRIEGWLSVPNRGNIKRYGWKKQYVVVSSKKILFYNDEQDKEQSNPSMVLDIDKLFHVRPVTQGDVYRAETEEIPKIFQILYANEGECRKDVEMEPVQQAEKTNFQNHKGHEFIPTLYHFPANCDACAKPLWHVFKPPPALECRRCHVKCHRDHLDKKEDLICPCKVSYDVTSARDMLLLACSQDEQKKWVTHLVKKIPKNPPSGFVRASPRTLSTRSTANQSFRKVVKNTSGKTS
Chain of Limk1 (P53667 285-638): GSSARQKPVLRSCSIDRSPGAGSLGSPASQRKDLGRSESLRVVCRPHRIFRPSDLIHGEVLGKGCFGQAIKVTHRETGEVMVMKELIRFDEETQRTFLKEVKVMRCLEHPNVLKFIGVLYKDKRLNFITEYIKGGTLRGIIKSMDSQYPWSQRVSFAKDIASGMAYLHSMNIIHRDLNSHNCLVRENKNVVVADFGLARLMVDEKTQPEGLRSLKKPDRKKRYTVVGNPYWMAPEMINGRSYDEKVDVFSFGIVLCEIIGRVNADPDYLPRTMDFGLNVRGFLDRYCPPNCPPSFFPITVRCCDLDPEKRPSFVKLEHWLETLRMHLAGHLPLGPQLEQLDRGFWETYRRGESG
Chain of JNK3 (P53779 whole entry, species assumed): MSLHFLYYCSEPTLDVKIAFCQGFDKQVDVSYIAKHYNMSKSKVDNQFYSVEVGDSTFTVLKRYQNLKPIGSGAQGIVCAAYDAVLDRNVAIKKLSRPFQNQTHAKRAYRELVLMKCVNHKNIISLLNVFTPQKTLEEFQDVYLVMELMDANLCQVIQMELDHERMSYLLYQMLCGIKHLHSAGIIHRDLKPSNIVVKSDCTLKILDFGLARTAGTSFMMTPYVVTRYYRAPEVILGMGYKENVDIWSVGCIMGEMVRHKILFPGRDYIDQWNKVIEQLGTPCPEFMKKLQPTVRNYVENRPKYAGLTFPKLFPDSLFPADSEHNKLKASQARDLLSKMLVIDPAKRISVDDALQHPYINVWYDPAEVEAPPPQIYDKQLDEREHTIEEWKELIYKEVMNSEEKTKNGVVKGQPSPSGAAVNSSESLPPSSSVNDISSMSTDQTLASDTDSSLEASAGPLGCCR
Chain of P450 2C9 (P11712 whole entry): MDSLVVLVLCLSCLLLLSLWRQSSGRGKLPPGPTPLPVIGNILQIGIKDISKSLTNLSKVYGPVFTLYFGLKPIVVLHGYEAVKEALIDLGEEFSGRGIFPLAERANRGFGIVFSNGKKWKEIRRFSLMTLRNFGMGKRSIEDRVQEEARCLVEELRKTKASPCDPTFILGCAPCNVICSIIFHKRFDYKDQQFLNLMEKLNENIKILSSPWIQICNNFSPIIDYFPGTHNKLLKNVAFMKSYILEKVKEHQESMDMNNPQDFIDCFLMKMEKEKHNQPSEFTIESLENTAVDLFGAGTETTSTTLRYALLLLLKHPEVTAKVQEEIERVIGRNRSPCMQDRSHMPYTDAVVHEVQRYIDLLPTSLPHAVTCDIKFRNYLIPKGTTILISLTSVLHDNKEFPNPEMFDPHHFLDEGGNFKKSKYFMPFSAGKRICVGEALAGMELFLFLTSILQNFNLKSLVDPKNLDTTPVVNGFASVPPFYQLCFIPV
Chain of ROCK-II (O75116 whole entry, species assumed): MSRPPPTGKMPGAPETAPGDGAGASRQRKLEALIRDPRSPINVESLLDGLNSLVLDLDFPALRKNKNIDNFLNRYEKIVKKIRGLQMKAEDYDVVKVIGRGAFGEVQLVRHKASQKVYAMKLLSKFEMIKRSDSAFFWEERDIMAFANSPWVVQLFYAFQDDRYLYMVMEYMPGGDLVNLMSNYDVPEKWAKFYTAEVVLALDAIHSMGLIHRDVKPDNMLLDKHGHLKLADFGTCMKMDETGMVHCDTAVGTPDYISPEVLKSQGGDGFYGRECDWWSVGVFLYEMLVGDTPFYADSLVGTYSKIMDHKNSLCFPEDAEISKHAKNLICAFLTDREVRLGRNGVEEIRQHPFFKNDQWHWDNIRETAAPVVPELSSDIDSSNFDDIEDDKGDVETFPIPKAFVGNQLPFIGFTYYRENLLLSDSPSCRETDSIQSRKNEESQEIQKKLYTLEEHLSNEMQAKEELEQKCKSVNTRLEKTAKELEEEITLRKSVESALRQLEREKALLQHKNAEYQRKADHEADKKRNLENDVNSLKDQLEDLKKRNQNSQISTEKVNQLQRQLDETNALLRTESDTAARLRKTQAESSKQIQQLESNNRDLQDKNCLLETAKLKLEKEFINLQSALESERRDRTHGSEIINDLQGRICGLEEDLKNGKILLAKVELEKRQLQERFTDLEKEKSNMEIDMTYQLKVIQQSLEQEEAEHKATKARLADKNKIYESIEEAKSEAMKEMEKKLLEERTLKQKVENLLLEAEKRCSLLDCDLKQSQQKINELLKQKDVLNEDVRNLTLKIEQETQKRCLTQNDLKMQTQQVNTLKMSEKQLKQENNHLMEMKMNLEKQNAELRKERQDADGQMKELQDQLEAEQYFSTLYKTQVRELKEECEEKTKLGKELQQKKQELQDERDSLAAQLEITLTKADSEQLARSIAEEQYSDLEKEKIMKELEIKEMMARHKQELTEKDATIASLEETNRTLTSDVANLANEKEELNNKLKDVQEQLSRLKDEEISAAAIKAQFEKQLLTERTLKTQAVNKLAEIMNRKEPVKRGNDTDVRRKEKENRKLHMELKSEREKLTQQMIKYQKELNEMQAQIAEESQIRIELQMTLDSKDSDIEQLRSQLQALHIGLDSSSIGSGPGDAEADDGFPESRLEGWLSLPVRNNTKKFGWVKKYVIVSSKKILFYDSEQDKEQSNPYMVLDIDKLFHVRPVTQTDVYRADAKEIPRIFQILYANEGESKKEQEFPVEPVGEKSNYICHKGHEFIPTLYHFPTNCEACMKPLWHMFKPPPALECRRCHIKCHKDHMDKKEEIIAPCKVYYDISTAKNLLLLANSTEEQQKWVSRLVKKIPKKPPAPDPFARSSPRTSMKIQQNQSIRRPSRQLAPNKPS
Chain of P450 2D6 (P10635 whole entry): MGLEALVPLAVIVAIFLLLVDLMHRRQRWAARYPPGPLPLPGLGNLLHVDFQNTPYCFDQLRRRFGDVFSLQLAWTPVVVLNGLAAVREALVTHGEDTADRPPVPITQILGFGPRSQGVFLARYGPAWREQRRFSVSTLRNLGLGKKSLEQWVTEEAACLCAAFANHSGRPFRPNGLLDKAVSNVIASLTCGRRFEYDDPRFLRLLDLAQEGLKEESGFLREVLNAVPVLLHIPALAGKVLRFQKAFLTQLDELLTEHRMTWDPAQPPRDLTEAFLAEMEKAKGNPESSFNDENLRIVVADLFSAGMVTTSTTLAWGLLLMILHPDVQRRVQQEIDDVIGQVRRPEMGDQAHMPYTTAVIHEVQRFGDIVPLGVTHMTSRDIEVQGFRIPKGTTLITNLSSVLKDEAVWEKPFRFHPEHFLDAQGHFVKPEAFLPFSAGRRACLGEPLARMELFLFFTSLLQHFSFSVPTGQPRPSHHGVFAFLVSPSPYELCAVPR

| AUC (iv) [1] | Cl (iv) [1] | T1/2 (iv) [1] | Cmax [1] | Compound | P450 % inh. at 10 μM 3A4 (P450 3A4) | P450 % inh. at 10 μM 2C9 (P450 2C9) | P450 % inh. at 10 μM 1A2 (P450 1A2; 10 μM) | P450 % inh. at 10 μM 2D6 (P450 2D6) | IC50 (ROCK-I) | Microsomal Stability t1/2 (min) Human [2] | Microsomal Stability t1/2 (min) Rat ([3]; rat liver microsomes) | X4 HIV infection (screen) (HIV-1(NL4-3)) | IC50 (Limk1; Table 8, read-out: LIMK1 IC50) | IC50 (ROCK-II; Table 4) | IC50 (JNK3) | also measured |
| --- | --- | --- | --- | --- | --- | --- | --- | --- | --- | --- | --- | --- | --- | --- | --- | --- |
| 5.5 µM·h | 7.1 mL/min/kg | 90 min | 5.1 µM | Cc1c[nH]c2ncnc(-c3ccc(NC(=O)Nc4cccc(C(=O)NC(C)C)c4)c(F)c3)c12 [Compound 7k, 3-(3-(2-Fluoro-4-(5-methyl-7H-pyrrolo[2,3-d]pyrimidin-4-yl)phenyl)ureido)-N-isopropylbenzamide] | 32% | 35% | 29% | 13% | 2390 nM | 27 min | 55 min |  |  |  |  | Yd (iv) [1]: 0.7 L/kg; F (%) (po) [1]: 0%; IC50 (ROCK-II; Table 2): 781 nM; IC50 (Limk1; read-out: Limk1 IC50): 18 nM |
|  |  |  |  | Cc1c[nH]c2ncnc(-c3ccc(-c4nc5ccc(C(=O)NC6CCCC6)cc5[nH]4)c(F)c3)c12 [Compound R8584] |  |  |  |  |  |  |  | blocked | 50 ± 7 nM |  |  |  |
|  |  |  |  | CC1(c2nc3ccc(C(=O)NC4CCC4)cc3[nH]2)CCN(c2ncnc3[nH]ccc23)CC1 [Compound R8482] |  |  |  |  |  |  |  | blocked | 41 ± 4 nM |  |  |  |
| 19.4 µM·h | 2.1 mL/min/kg | 132 min | 10.6 µM | COc1ccc(N(CCO)C(=O)Nc2ccc(-c3ncnc4[nH]cc(C)c34)cc2)cc1 [Compound 18n, 1-(2-hydroxyethyl)-1-(4-methoxyphenyl)-3-(4-(5-methyl-7H-pyrrolo[2,3-d]pyrimidin-4-yl)phenyl)urea] |  |  |  |  | > 20000 nM | 56 min | 40 min |  |  | > 10000 nM | > 10000 nM | IC50 (Limk1; [5]): 53 nM |
|  |  |  |  | Cc1c[nH]c2ncnc(-c3ccc(NC(=O)N(CCO)c4cccc(Cl)c4)cc3)c12 [Compound 18g, 1-(3-Chlorophenyl)-1-(2-hydroxyethyl)-3-(4-(5-methyl-7H-pyrrolo[2,3-d]pyrimidin-4-yl)phenyl)urea] | 42% | 31% |  | 2% | 15000 nM |  |  |  |  | 11300 nM |  | P450 % inh. at 10 μM 1A2 (P450 1A2): −19/31/2/42%; IC50 ([4]; A7R5, read-out: Cofilin Phosphorylation In A7r5 Cells (IC50, nM)): 372 nM; Microsomal Stability t1/2 (min) Rat [3]: 20 min; IC50 (Limk1; [5]): 67 nM |
|  |  |  |  | CCOC(=O)c1ccc2nc(N3CCN(c4ncnc5[nH]cc(Cl)c45)[C@H](C)C3)[nH]c2c1 [Compound R10659] |  |  |  |  |  |  |  | blocked | 45 ± 6 nM |  |  |  |
| 13.2 µM·h | 3.0 mL/min/kg | 156 min | 10.5 µM | Cc1c[nH]c2ncnc(-c3ccc(NC(=O)N(CCO)c4ccc(Cl)cc4)cc3)c12 [Compound 18h, 1-(4-Chlorophenyl)-1-(2-hydroxyethyl)-3-(4-(5-methyl-7H-pyrrolo[2,3-d]pyrimidin-4-yl)phenyl)urea] | 27% | 23% |  |  | 5920 nM | >120 min | 73 min |  |  | 4360 nM | > 10000 nM | IC50 ([4]; A7R5, A7r5 cells, read-out: Cofilin Phosphorylation In A7r5 Cells (IC50)): ~100 nM |
|  |  |  |  | Cc1c[nH]c2ncnc(N3CCC(c4nc5cc(C#N)ccc5[nH]4)CC3)c12 [Compound R8212] |  |  |  |  |  |  |  | blocked | 44 ± 6 nM |  |  |  |
|  |  |  |  | Cc1[nH]c2ncnc(-c3ccc(NC(=O)N(CCN)c4ccc(Cl)cc4)c(F)c3)c2c1C [Compound 18t, 1-(2-Amino-ethyl)-1-(4-chloro-phenyl)-3-[4-(5,6-dimethyl-7H-pyrrolo[2,3-d]pyrimidin-4-yl)-2-fluoro-phenyl]-urea] | −11% | 24% | 24% | 52% |  | >120 min | >120 min |  |  |  | > 10000 nM |  |
|  |  |  |  | CC(C)NC(=O)c1ccc2[nH]c(N3CCN(c4ncnc5[nH]cc(Cl)c45)C[C@@H]3C)nc2c1 [Compound R10543] |  |  |  |  |  |  |  | blocked | 5 ± 2 nM |  |  |  |
|  |  |  |  | COc1cccc(N(CCO)C(=O)Nc2ccc(-c3ncnc4[nH]cc(C)c34)cc2)c1 [Compound 18m, 1-(2-Hydroxyethyl)-1-(3-methoxyphenyl)-3-(4-(5-methyl-7H-pyrrolo[2,3-d]pyrimidin-4-yl)phenyl)urea] | 44% | 17% |  | 3% | 4320 nM | 38 min | 21 min |  |  | 3220 nM |  | P450 % inh. at 10 μM 1A2 (P450 1A2): 3/17/3/44%; IC50 (Limk1; [5]): 100 nM |
|  |  |  |  | Cc1c[nH]c2ncnc(-c3ccc(NC(=O)N(CCO)c4ccc(F)cc4)cc3)c12 [Compound 18e, 1-(4-Fluorophenyl)-1-(2-hydroxyethyl)-3-(4-(5-methyl-7H-pyrrolo[2,3-d]pyrimidin-4-yl)phenyl)urea] | 25% | 13% | −4% | 3% | 3920 nM | 44 min | 52 min |  |  | 3240 nM | > 10000 nM |  |

| Compound | AUC (iv) [1] | Cl (iv) [1] | T1/2 (iv) [1] | Cmax [1] | P450 % inh. at 10 μM 3A4 (P450 3A4) | P450 % inh. at 10 μM 2C9 (P450 2C9) | P450 % inh. at 10 μM 1A2 (P450 1A2; 10 μM) | P450 % inh. at 10 μM 2D6 (P450 2D6) | IC50 (ROCK-I) | Microsomal Stability t1/2 (min) Human [2] | Microsomal Stability t1/2 (min) Rat ([3]; rat liver microsomes) | X4 HIV infection (screen) (HIV-1(NL4-3)) | IC50 (Limk1; Table 8, read-out: LIMK1 IC50) | IC50 (ROCK-II; Table 4) | IC50 (JNK3) | also measured |
| --- | --- | --- | --- | --- | --- | --- | --- | --- | --- | --- | --- | --- | --- | --- | --- | --- |
| Cc1[nH]c2ncnc(-c3ccc(NC(=O)N(CCO)c4ccc(Cl)cc4)c(F)c3)c2c1C [Compound 18s, 1-(4-Chlorophenyl)-3-(4-(5,6-dimethyl-7H-pyrrolo[2,3-d]pyrimidin-4-yl)-2-fluorophenyl)-1-(2-hydroxyethyl)urea] | 14.5 µM·h | 4.5 mL/min/kg | 192 min | 12.3 µM | 16% | 13% | 40% | 8% |  | 99 min | 44 min |  |  |  | > 10000 nM | Yd (iv) [1]: 0.5 L/kg; F (%) (po) [1]: 29% |
| Cc1ccc(N(CCO)C(=O)Nc2ccc(-c3ncnc4[nH]cc(C)c34)cc2)cc1 [Compound 18k, 1-(2-Hydroxyethyl)-3-(4-(5-methyl-7H-pyrrolo[2,3-d]pyrimidin-4-yl)phenyl)-1-p-tolylurea] | 15.6 µM·h | 2.7 mL/min/kg | 108 min | 9.4 µM | 5% | 24% | −5% | −4% | 7630 nM | 56 min | 39 min |  |  | 5930 nM | > 10000 nM | Yd (iv) [1]: 0.3 L/kg; F (%) (po) [1]: 24%; IC50 (Limk1; [5]): 37 nM |
